Tests used:
Assay in all cases: relative viability (nuclei count vs DMSO), 5 days (fraction); higher = more cells survive
Quizartinib = compound: CC(C)(C)c1cc(NC(=O)Nc2ccc(-c3cn4c(n3)sc3cc(OCCN5CCOCC5)ccc34)cc2)no1 [Quizartinib]
Summary of the method: (§1)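 A plate was accepted only when its control CV was below 25% and the cells had doubled at least once. Viability is defined from nuclear counts as treated wells divided by vehicle wells, with the median taken across plates. That median covers lung cancer cell lines grown in 1536-well plates, dosed by pinning at five √10-spaced library-drug concentrations, and counted in MetaXpress from 4× Hoechst images after 5 days.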

YM155 = compound: COCC[n+]1c2c(n(Cc3cnccn3)c1C)C(=O)c1ccccc1C2=O [YM155]
Summary of the method: as §1

Quizartinib + OSI-027 = compound: CC(C)(C)c1cc(NC(=O)Nc2ccc(-c3cn4c(n3)sc3cc(OCCN5CCOCC5)ccc34)cc2)no1 [Quizartinib] + COc1cccc2cc(-c3nc([C@H]4CC[C@H](C(=O)O)CC4)n4ncnc(N)c34)[nH]c12 [OSI-027] (partner 0.5 µM)
Summary of the method: (§2)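 Lung cancer cell lines in 1536-well plates got either a single drug or a fixed anchor-drug dose together with five library-drug doses (not always all listed) in √10 steps, by pin tool, on the day after seeding. Nuclei were counted after 5 days, and relative viability is the treated-to-vehicle ratio of nuclei counts. Values are medians of duplicate plates.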

YM155 + Pemetrexed = compound: COCC[n+]1c2c(n(Cc3cnccn3)c1C)C(=O)c1ccccc1C2=O [YM155] + Nc1nc2[nH]cc(CCc3ccc(C(=O)N[C@@H](CCC(=O)O)C(=O)O)cc3)c2c(=O)[nH]1 [Pemetrexed] (partner 0.2 µM)
Summary of the method: as §2

Cell Line | relative viability (Quizartinib; 0.001 µM) | relative viability (Quizartinib; 0.003162 µM) | relative viability (Quizartinib; 0.01 µM) | relative viability (Quizartinib; 0.03162 µM) | relative viability (Quizartinib; 0.1 µM) | relative viability (YM155; 0.002 µM) | relative viability (YM155; 0.006325 µM) | relative viability (YM155; 0.02 µM) | relative viability (YM155; 0.06325 µM) | relative viability (Quizartinib + OSI-027; first compound 0.001 µM) | relative viability (Quizartinib + OSI-027; first compound 0.003162 µM) | relative viability (Quizartinib + OSI-027; first compound 0.01 µM) | relative viability (Quizartinib + OSI-027; first compound 0.03162 µM) | relative viability (Quizartinib + OSI-027; first compound 0.1 µM) | relative viability (YM155 + Pemetrexed; first compound 0.002 µM) | relative viability (YM155 + Pemetrexed; first compound 0.006325 µM) | relative viability (YM155 + Pemetrexed; first compound 0.02 µM) | relative viability (YM155 + Pemetrexed; first compound 0.06325 µM)
LXF-289 | 0.924 | 0.976 | 1.05 | 0.957 | 0.998 | 0.998 | 1.01 | 1.04 | 0.973 | 0.743 | 0.791 | 0.797 | 0.89 | 0.877 | 0.855 | 0.914 | 0.827 | 0.783
NCI-H520 | 0.73 | 0.867 | 0.96 | 0.903 | 0.921 | 1.01 | 1.03 | 1.05 | 1.17 | 0.245 | 0.231 | 0.292 | 0.233 | 0.272 | 0.534 | 0.74 | 0.685 | 0.694
RERF-LC-KJ | 0.954 | 0.926 | 1.03 | 0.99 | 0.915 | 1 | 0.973 | 1.01 | 1.01 | 0.536 | 0.534 | 0.592 | 0.341 | 0.521 | 0.487 | 0.467 | 0.487 | 0.471
NCI-H3122 | 0.885 | 0.977 | 1.07 | 1.01 | 0.982 | 0.984 | 0.992 | 1.01 | 0.976 | – | 0.947 | 1.08 | – | 0.877 | 0.185 | 0.214 | 0.189 | 0.186
HARA | 0.946 | 0.924 | 1.05 | 0.954 | 0.941 | 0.823 | 1.15 | 1.05 | 1.09 | – | 0.523 | 0.368 | 0.423 | 0.325 | – | 0.235 | 0.228 | 0.268
SK-LU-1 | 0.88 | 0.861 | 1.11 | 0.999 | 1.06 | 0.86 | 1.06 | 1.07 | 0.91 | 0.316 | 0.312 | 0.377 | 0.35 | 0.37 | 0.946 | 0.956 | 0.91 | 0.684
LK-2 | 0.943 | 0.891 | 1.02 | 0.944 | 1.15 | 0.893 | 1.06 | 1.03 | 1.16 | 0.182 | 0.199 | 0.185 | 0.198 | 0.182 | 0.276 | 0.287 | 0.263 | 0.364
NCI-H596 | 1.05 | 1.03 | 0.99 | 0.875 | 1.04 | 0.962 | 0.989 | 1.15 | 1.06 | 0.665 | 0.745 | 0.652 | 0.663 | 0.547 | 0.429 | 0.485 | 0.532 | 0.499
UMC-11 | 0.723 | 0.945 | 0.983 | 0.966 | 0.988 | 0.889 | 0.998 | 1.04 | 0.959 | – | 0.383 | 0.46 | 0.466 | 0.467 | 0.817 | 0.823 | 0.878 | 0.802
NCI-H1355 | 0.924 | 0.966 | 0.876 | 1 | 1.02 | 0.927 | 1.01 | 1.01 | 1.08 | 0.361 | 0.449 | 0.389 | 0.377 | 0.4 | 0.979 | 1.07 | 1.04 | 0.997
NCI-H2228 | 0.856 | 0.854 | 1.15 | 1.13 | 0.927 | 0.834 | 0.887 | 1.02 | 1.11 | 0.616 | 0.557 | 0.679 | 0.431 | 0.539 | 0.329 | 0.318 | 0.332 | 0.326
NCI-H2170 | 0.97 | 0.944 | 1.04 | 1.04 | 0.995 | 0.922 | 1.05 | 0.936 | 1.05 | 0.695 | 0.659 | 0.825 | 0.774 | 0.816 | 0.253 | 0.256 | 0.271 | 0.264
NCI-H460 | 0.811 | 0.957 | 1.02 | 0.78 | 0.942 | 0.984 | 1.02 | 0.997 | 0.988 | 0.585 | 0.593 | 0.692 | 0.341 | 0.533 | 0.072 | 0.0667 | 0.0671 | 0.0598
NCI-H647 | 0.794 | 0.946 | 1.09 | 0.855 | 1.09 | 0.857 | 0.89 | 0.925 | 0.538 | 0.627 | 0.654 | 0.689 | 0.596 | 0.648 | 0.189 | 0.171 | 0.173 | 0.164
NCI-H358 | 0.892 | 0.979 | 0.841 | – | 0.873 | 0.831 | 0.954 | 1.07 | 0.34 | 0.706 | 0.676 | 0.768 | 0.287 | 0.72 | 0.181 | 0.172 | 0.167 | 0.127

Source: the supplement of paper PMC10307832
